From paper PMC7710018, “Restoration of motor learning in a mouse model of Rett syndrome following long-term treatment with a novel small-molecule activator of TrkB” (Disease Models & Mechanisms, 2020)
“Also recorded” adds a separate entry of the source.

What was measured:
8 different CYP enzymes = experiment: CYP inhibition (Cerep); format: in vitro ADME; details: 10µM
Experimental: (§1) To evaluate the relative binding specificity of LM22A-4 ([Massa et al., 2010]) and PTX-BD4-3, binding to a broad range of 55 pharmacologically relevant receptors, including numerous neurotransmitter and G-protein coupled receptors was assessed using standard radioligand competition binding assays (ExpressSProfile) performed by Cerep, Inc. (Seattle, WA, USA). In addition, ADME-Tox analysis was performed by Cerep, Inc. All experimental conditions are described on the Cerep website (www.cerep.fr).
(§2) Aqueous Human CYP inhibition (10µM) AMES hERG solubility hepatocyte DNA testing
(§3) (µM) metabolic mutagenesis
(§4) PTX‐BD4‐3 200 >60 negative negative negative
Table S2. Solubility, metabolism and toxicity screens for LM22A-4 […]
and PTX-BD4-3. […]
Both compounds were negative in 3 different assays of in vitro toxicity; inhibition of 8 different CYP enzymes at 10 µM, DNA mutagenesis in 4 different strains of Salmonella typhimurium at 5, 10, 50 and 100 µM and cardiac toxicity, measured by […] of hERG channels at 0.1, 1 and 10 µM, where >50% inhibition of the tail current indicates significant cardiac toxicity.
(also on this page, place not known: Disease Models & Mechanisms: doi:10.1242/dmm.044685: Supplementary information Disease Models & Mechanisms • Supplementary information)

3T3-TrkB cells = experiment: NIH-3T3 cell survival (ViaLight); format: cell-based, mouse; details: 72-96 h
Experimental: Fig. 2. PTX-BD4-3 promotes cell survival preferentially through TrkB. (A-D) Neurotrophin receptor-expressing NIH-3T3 cells were incubated in culture medium (CM) alone or in medium plus either the indicated neurotrophins (BDNF, NGF, NT-3) or PTX-BD4-3 or its parent compound LM22A-4 for 72-96 h, after which survival was measured using the ViaLight assay. […] Scale bar: 10 μm. (B) Survival dose-response curves for PTX-BD4-3 and LM22A-4 in 3T3-TrkB cells. ^§P≤0.001 compared to CM alone. (C) Representative images of 3T3-TrkA, 3T3-TrkC and 3T3-p75 cells grown in the presence of CM alone, CM+neurotrophin or CM+PTX-BD4-3. Scale bar: 10 μm. NGF, NT-3 and BDNF served as positive controls for 3T3-TrkA, 3T3-TrkC and 3T3-p75 cells, respectively. (D) PTX-BD4-3 (1000 nM) had no effect on survival of 3T3-TrkA, 3T3-TrkC or 3T3-p75 cells compared to medium alone. *P≤0.05, ***P≤0.001 compared to CM alone. For each determination in B and D, n=10-32 wells derived from four to five independent experiments. Statistical significance was determined by one-way ANOVA with Dunnett's post hoc multiple comparison test. (E,F) […] protein was extracted from human cementoblast-like cell (HCEM) cultures treated with either culture medium alone, BDNF, LM22A-4 or PTX-BD4-3, immunoprecipitated with anti-TrkB antibody and then probed sequentially on western blots with anti-Shc and anti-TrkB antibody. The ratio of Shc to TrkB in treated cultures was normalized and compared to control (CM alone) using Kruskal-Wallis ANOVA followed by Dunn's multiple comparisons test (*P≤0.05, ^§P≤0.001). n=13 independent experiments, and each protein sample was run on duplicate western blots and the normalized values averaged. RLUs, relative light units.
Mouse NIH-3T3 cells expressing TrkA (NIH-3T3-TrkA) were provided by Dr William Mobley (University of California at San Diego, San Diego, CA, USA), and NIH-3T3 cells expressing TrkB (NIH-3T3-TrkB) or TrkC (NIH-3T3-TrkC) were provided by Dr David Kaplan (University of Toronto, Toronto, ON, Canada). Cells were propagated in Dulbecco's modified Eagle medium (DMEM) supplemented with 10% fetal bovine serum (FBS; Invitrogen) and 200-400 µg/ml Geneticin. Cells were seeded into 24-well plates (30,000 cells/well) and cultured in medium consisting of 50% PBS and 50% DMEM without supplements. Following exposure to BDNF (20 ng/ml, 0.7 nM) or 10-1000 nM LM22A-4 or PTX-BD4-3 for 72-96 h, cells were suspended in 50 µl lysis buffer, transferred to white, opaque 96-well culture plates and survival was measured using the ViaLight Assay (Lonza Group, Rockland, ME, USA).

hERG channels = biological target: T1, hERG channels (Homo sapiens, UniProt Q12809); experiment: hERG testing (Cerep); format: cell-based; details: 0.1, 1 and 10 µM; >50% inhibition of the tail current = significant
T1 construct: Cerep, Inc. (contract screen)
Experimental: as §1, §2, §3, §4
Table S2. Solubility, metabolism and toxicity screens for LM22A-4 and PTX-BD4-3. Standardized assays of solubility, metabolic stability and in vitro toxicity were performed to further evaluate the potential of PTX-BD4-3 as a lead candidate molecule for the treatment of Rett syndrome, and to compare its profile to that of the parent compound LM22A-4. Aqueous solubility of both compounds, which is used as a surrogate measure of absorption, was at or near the assay maximum of 200 µM. The metabolic stability of both compounds at 10 µM was evaluated at 5 different time points in […] and found to be >60 min, indicating favorable stability. […]

[1] = system: heterozygous (Het) female Mecp2 mutant mice; experiment: Forelimb grip strength; format: in vivo, mouse; details: chronic intermittent 5 mg/kg q72 h
Experimental: This improvement is consistent with previous reports of motor learning in response to repeated exposure to Rotarod testing ([Buitrago et al., 2004]). […] To investigate this possibility, we evaluated Rotarod performance in additional cohorts of animals that received chronic intermittent dosing with PTX-BD4-3 and only one exposure to Rotarod testing, at the end of the 8-week treatment period (Fig. 7A).
Fig. 7. […] (A) Repeated dosing with PTX-BD4-3 (5 mg/kg, q72 h) for 8 weeks had no impact on latency to fall in animals that were tested only at the end of the 8-week treatment period. Rotarod performance was measured over three successive trials, 24 h after the last dose. n=15-16 subjects derived from two independent experiments. (B) Het mice show no deficit in forelimb grip strength compared to Wt controls, and no increase in grip strength in response to treatment with PTX-BD4-3. n=9-20 subjects derived from two independent experiments. *P<0.05, **P<0.001 compared to saline-treated Wt mice. One-way ANOVA with LSD post hoc analysis. Black, saline-treated Wt mice; gray, saline-treated Het mice; red, PTX-BD4-3-treated Het mice.

T1 sequence (Q12809 whole entry): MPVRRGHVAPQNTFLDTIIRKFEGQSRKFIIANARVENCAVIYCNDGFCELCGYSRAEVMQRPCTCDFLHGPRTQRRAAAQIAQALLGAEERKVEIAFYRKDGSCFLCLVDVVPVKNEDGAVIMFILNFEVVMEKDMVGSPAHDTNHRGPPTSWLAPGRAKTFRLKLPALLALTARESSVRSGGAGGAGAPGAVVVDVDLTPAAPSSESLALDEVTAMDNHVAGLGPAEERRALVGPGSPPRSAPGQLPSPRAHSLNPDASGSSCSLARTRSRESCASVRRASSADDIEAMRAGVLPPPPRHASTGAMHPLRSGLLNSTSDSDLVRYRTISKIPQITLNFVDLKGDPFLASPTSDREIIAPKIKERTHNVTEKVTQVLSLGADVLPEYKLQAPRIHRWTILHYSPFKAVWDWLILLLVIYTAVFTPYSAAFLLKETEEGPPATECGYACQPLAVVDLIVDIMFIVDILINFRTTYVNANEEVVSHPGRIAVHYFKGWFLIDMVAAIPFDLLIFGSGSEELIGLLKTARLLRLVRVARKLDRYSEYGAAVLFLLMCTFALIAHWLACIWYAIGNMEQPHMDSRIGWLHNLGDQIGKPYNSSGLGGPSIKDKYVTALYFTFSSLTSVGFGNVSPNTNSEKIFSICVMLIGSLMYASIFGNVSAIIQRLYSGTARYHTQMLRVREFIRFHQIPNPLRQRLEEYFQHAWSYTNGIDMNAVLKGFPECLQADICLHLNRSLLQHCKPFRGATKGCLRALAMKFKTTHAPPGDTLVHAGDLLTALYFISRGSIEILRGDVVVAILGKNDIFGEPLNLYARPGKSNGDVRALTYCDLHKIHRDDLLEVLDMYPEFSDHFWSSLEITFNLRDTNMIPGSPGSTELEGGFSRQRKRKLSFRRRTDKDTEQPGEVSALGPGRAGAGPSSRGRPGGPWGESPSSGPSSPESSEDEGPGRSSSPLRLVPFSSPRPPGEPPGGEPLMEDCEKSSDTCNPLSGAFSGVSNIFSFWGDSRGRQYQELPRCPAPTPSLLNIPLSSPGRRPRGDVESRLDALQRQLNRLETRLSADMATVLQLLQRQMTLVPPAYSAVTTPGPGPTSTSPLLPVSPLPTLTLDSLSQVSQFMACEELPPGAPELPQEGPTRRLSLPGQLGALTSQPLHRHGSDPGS

| Compound | CYP inhibition (8 different CYP enzymes) | survival of 3T3-TrkB cells (3T3-TrkB cells; 1000 nM, representative images) | hERG testing (cardiac toxicity) (hERG channels) | forelimb grip strength [1] | survival of 3T3-TrkB cells (3T3-TrkB cells; serum-free medium, ViaLight, compounds 10-1000 nM dose-response, BDNF 20 ng/ml) |
| --- | --- | --- | --- | --- | --- |
| O=C(NCCO)c1cc(C(=O)NCCO)cc(C(=O)NCCO)c1 [LM22A-4, N,N′,N′′-tris(2-hydroxyethyl)-1,3,5-benzenetricarboxamide, reference compound] | negative | support the survival | negative |  |  |
| COCCN(C)C(=O)c1cc(C(=O)N(C)CCOC)cc(C(=O)N(C)CCOC)c1 [PTX-BD4-3, benzene-1,3,5-tricarboxylic acid tris-[(2-methoxy-ethyl)-methyl-amide]] | negative | support the survival | negative; also recorded: no activity | no gain in grip strength | promoted survival |
